Values after ≈ are worked out from the molar mass of the structure shown. Where two headings read alike, the source gives them in different places.
Columns and labels:
Past multocida PA1 = experiment: MIC veterinary bacteria (Table 2), serial dilution in agar; assay type: cell-based; settings: diagnostic sensitivity test agar
[1] = Serum binding by ultrafiltration of porcine serum; assay type: in vitro ADME; settings: pig, 8 mcg/ml, microbiological assay, read-out: % bound to pig serum (converted)
Description: Serum binding was assessed by ultrafiltration of porcine serum containing compounds at 8 mcg/ml, and through an Amicon CF50A ultrafiltration cone. Separation of ultrafiltrate was achieved by centrifugation. Unbound concentrations of compound were measured in the ultrafiltrate by microbiological assay (B. subtilis ATCC 6633) against standards prepared in saline.

Bord bronchiseptica B09 = experiment: MIC veterinary bacteria (Table 2), serial dilution in agar; assay type: cell-based; settings: diagnostic sensitivity test agar
Strep uberis SPU1 = experiment: as above; assay type: cell-based; settings: diagnostic sensitivity test agar
P. mirabilis 889 = experiment: MIC human bacteria (Table 1), serial dilution in nutrient agar; assay type: cell-based; settings: Proteus mirabilis
Bord bronchiseptica B08 = experiment: MIC veterinary bacteria (Table 2), serial dilution in agar; assay type: cell-based; settings: diagnostic sensitivity test agar
Staph aureus Oxford [2] = experiment: as above; assay type: cell-based; settings: Staphylococcus aureus; Staph aureus Oxford; diagnostic sensitivity test agar; read-out: MIC
S. typhimurium S18 = experiment: as above; assay type: cell-based; settings: Salmonella enterica, diagnostic sensitivity test agar
Strep pneumoniae CN33 = experiment: MIC human bacteria (Table 1), serial dilution in nutrient agar; assay type: cell-based; settings: nutrient agar with 5% chocolated horse blood
Ps. aeruginosa 10662 = experiment: as above; assay type: cell-based; settings: Pseudomonas aeruginosa, nutrient agar with 5% chocolated horse blood
Sarcina lutea 8340 = experiment: as above; assay type: cell-based; settings: Micrococcus luteus, nutrient agar with 5% chocolated horse blood, read-out: MIC
Strep pyogenes C 2761 = experiment: as above; assay type: cell-based; settings: nutrient agar with 5% chocolated horse blood
Strep agalactiae SPA1 = experiment: MIC veterinary bacteria (Table 2), serial dilution in agar; assay type: cell-based; settings: diagnostic sensitivity test agar
[3] = tested on: Staph aureus B4 (pen. resis); experiment: as above; assay type: cell-based; settings: Staphylococcus aureus; Staph aureus B4 (pen. resis); diagnostic sensitivity test agar; read-out: MIC
E. coli ESS = experiment: MIC human bacteria (Table 1), serial dilution in nutrient agar; assay type: cell-based; settings: Escherichia coli
Staph aureus Oxford [4] = experiment: as above; assay type: cell-based; settings: Staphylococcus aureus, nutrient agar with 5% chocolated horse blood
K. aerogenes A = experiment: as above; assay type: cell-based; settings: Klebsiella aerogenes, nutrient agar with 5% chocolated horse blood
E. coli NCTC 10418 [5] = experiment: as above; assay type: cell-based; settings: Escherichia coli, NCTC10418; E. coli NCTC 10418; nutrient agar with 5% chocolated horse blood; read-out: MIC
[6] = tested on: Staph aureus 152 (pen. sens); experiment: MIC veterinary bacteria (Table 2), serial dilution in agar; assay type: cell-based; settings: Staphylococcus aureus, diagnostic sensitivity test agar
[7] = tested on: Pasteurella multocida 1633; experiment: MIC human bacteria (Table 1), serial dilution in nutrient agar; assay type: cell-based
E. coli E1 = experiment: MIC veterinary bacteria (Table 2), serial dilution in agar; assay type: cell-based; settings: Escherichia coli, diagnostic sensitivity test agar
Bacillus subtilis 6633 = experiment: MIC human bacteria (Table 1), serial dilution in nutrient agar; assay type: cell-based; settings: nutrient agar with 5% chocolated horse blood
[8] = tested on: Strep suis (group D) SPS11; experiment: MIC veterinary bacteria (Table 2), serial dilution in agar; assay type: cell-based; settings: diagnostic sensitivity test agar
[9] = tested on: Corynebacterium xerosis 9755; experiment: MIC human bacteria (Table 1), serial dilution in nutrient agar; assay type: cell-based; settings: nutrient agar with 5% chocolated horse blood, read-out: MIC
S. dublin S7 = experiment: MIC veterinary bacteria (Table 2), serial dilution in agar; assay type: cell-based; settings: Salmonella enterica, diagnostic sensitivity test agar
Past multocida PA2 = experiment: as above; assay type: cell-based; settings: diagnostic sensitivity test agar
E. coli NCTC 10418 [10] = experiment: as above; assay type: cell-based; settings: Escherichia coli, NCTC10418; E. coli NCTC 10418; diagnostic sensitivity test agar; read-out: MIC
Strep pyogenes A 64/848 = experiment: MIC human bacteria (Table 1), serial dilution in nutrient agar; assay type: cell-based; settings: nutrient agar with 5% chocolated horse blood
Strep pyogenes B 2788 = experiment: as above; assay type: cell-based; settings: nutrient agar with 5% chocolated horse blood
Strep faecalis I = experiment: as above; assay type: cell-based; settings: nutrient agar with 5% chocolated horse blood
Staph aureus Russell = experiment: as above; assay type: cell-based; settings: Staphylococcus aureus, nutrient agar with 5% chocolated horse blood
Strep dysgalaciae SPD1 = experiment: MIC veterinary bacteria (Table 2), serial dilution in agar; assay type: cell-based; settings: diagnostic sensitivity test agar
[11] = tested on: Haemophilus influenzae Q1; experiment: MIC human bacteria (Table 1), serial dilution in nutrient agar; assay type: cell-based
[12] = tested on: Erysipelothrix rhusiopathiae NCTC 8163; experiment: MIC veterinary bacteria (Table 2), serial dilution in agar; assay type: cell-based; settings: NCTC8163; Erysipelothrix rhusiopathiae NCTC 8163; diagnostic sensitivity test agar; read-out: MIC
Staph aureus W2827 = experiment: MIC human bacteria (Table 1), serial dilution in nutrient agar; assay type: cell-based; settings: Staphylococcus aureus, nutrient agar with 5% chocolated horse blood
[13] = tested on: Corynebacterium pyogenes CY1; experiment: MIC veterinary bacteria (Table 2), serial dilution in agar; assay type: cell-based; settings: Trueperella pyogenes, diagnostic sensitivity test agar
[14] = tested on: Neisseria catarrhalis 1502; experiment: MIC human bacteria (Table 1), serial dilution in nutrient agar; assay type: cell-based; settings: nutrient agar with 5% chocolated horse blood
[15] = tested on: Haemophilus influenzae Wy21; experiment: as above; assay type: cell-based; settings: Haemophilus influenzae Wy21; nutrient agar with 5% chocolated horse blood; read-out: MIC

| Compound | MIC (Past multocida PA1) [µg/mL] | fraction unbound [1] | MIC (Bord bronchiseptica B09) [µg/mL] | MIC (Strep uberis SPU1) [µg/mL] | MIC (Bord bronchiseptica B08) [µg/mL] | MIC (Staph aureus Oxford [2]) [µg/mL] | MIC (S. typhimurium S18) [µg/mL] | MIC (Strep pneumoniae CN33) [µg/mL] | MIC (Ps. aeruginosa 10662) [µg/mL] | MIC (Sarcina lutea 8340) [µg/mL] | MIC (Strep pyogenes C 2761) [µg/mL] | MIC (Strep agalactiae SPA1) [µg/mL] | MIC [3] [µg/mL] | MIC (Staph aureus Oxford [4]) [µg/mL] | MIC (K. aerogenes A) [µg/mL] | MIC (E. coli NCTC 10418 [5]) [µg/mL] | MIC [6] [µg/mL] | MIC (E. coli E1) [µg/mL] | MIC (Bacillus subtilis 6633) [µg/mL] | MIC [8] [µg/mL] | also measured |
| --- | --- | --- | --- | --- | --- | --- | --- | --- | --- | --- | --- | --- | --- | --- | --- | --- | --- | --- | --- | --- | --- |
| C/C(=C\C(=O)OCCCCCCS(N)(=O)=O)CC1OCC(CC2OC2C(C)C(C)O)C(O)C1O (stereo not shown) [Example 2, 6-Sulphamoylhexyl monate A] | 0.312 (≈ 0.615 µM) | 0.287 | 10 (≈ 19.7 µM) | 0.625 (≈ 1.23 µM) | 20 (≈ 39.4 µM) | 2.5 (≈ 4.92 µM) | > 80 | 0.2 (≈ 0.394 µM) | > 100 | > 100 | 1 (≈ 1.97 µM) | 1.25 (≈ 2.46 µM) | 2.5 (≈ 4.92 µM) | 5 (≈ 9.85 µM) | > 100 | > 100 | 1.25 (≈ 2.46 µM) | > 80 | 0.5 (≈ 0.985 µM) | 2.5 (≈ 4.92 µM) | MIC (P. mirabilis 889; 889): 50 µg/mL (≈ 98.5 µM); MIC (E. coli ESS): 0.5 µg/mL (≈ 0.985 µM); MIC ([7]; Pasteurella multocida 1633, nutrient agar with 5% chocolated horse blood, read-out: MIC): 2.5 µg/mL (≈ 4.92 µM); MIC [9]: > 100 µg/mL; MIC (S. dublin S7): > 80 µg/mL; MIC (Past multocida PA2): 0.039 µg/mL (≈ 0.0768 µM); MIC (E. coli NCTC 10418 [10]): > 80 µg/mL; MIC (Strep pyogenes A 64/848): 0.5 µg/mL (≈ 0.985 µM); MIC (Strep pyogenes B 2788): 1 µg/mL (≈ 1.97 µM); MIC (Strep faecalis I): > 100 µg/mL; MIC (Staph aureus Russell): 5 µg/mL (≈ 9.85 µM); MIC (Strep dysgalaciae SPD1): 0.625 µg/mL (≈ 1.23 µM); MIC ([11]; Haemophilus influenzae, Q1): 0.1 µg/mL (≈ 0.197 µM); MIC [12]: 20 µg/mL (≈ 39.4 µM); MIC (Staph aureus W2827): 5 µg/mL (≈ 9.85 µM); MIC [13]: 10 µg/mL (≈ 19.7 µM) |
| C/C(=C\C(=O)OCCCCCCCCS(N)(=O)=O)CC1OCC(CC2OC2C(C)C(C)O)C(O)C1O (stereo not shown) [Example 3, 8-Sulphamoyloctyl monate A] | 1.25 (≈ 2.33 µM) | 0.035 | 40 (≈ 74.7 µM) | 1.25 (≈ 2.33 µM) | 80 (≈ 149 µM) | 0.625 (≈ 1.17 µM) | > 80 | 0.5 (≈ 0.933 µM) | > 100 | > 100 | 1 (≈ 1.87 µM) | 2.5 (≈ 4.67 µM) | 0.625 (≈ 1.17 µM) | 1 (≈ 1.87 µM) | > 100 | > 100 | 0.625 (≈ 1.17 µM) | > 80 | 0.2 (≈ 0.373 µM) | 20 (≈ 37.3 µM) | MIC (P. mirabilis 889; P. mirabilis 889, nutrient agar with 5% chocolated horse blood, read-out: MIC): > 100 µg/mL; MIC (E. coli ESS; E. coli ESS, nutrient agar with 5% chocolated horse blood, read-out: MIC): 0.5 µg/mL (≈ 0.933 µM); MIC ([7]; Pasteurella multocida, 1633): 1 µg/mL (≈ 1.87 µM); MIC [9]: > 100 µg/mL; MIC (S. dublin S7): > 80 µg/mL; MIC (Past multocida PA2): 0.156 µg/mL (≈ 0.291 µM); MIC (E. coli NCTC 10418 [10]): > 80 µg/mL; MIC (Strep pyogenes A 64/848): 0.5 µg/mL (≈ 0.933 µM); MIC [14]: 1 µg/mL (≈ 1.87 µM); MIC (Strep pyogenes B 2788): 1 µg/mL (≈ 1.87 µM); MIC (Strep faecalis I): > 100 µg/mL; MIC (Staph aureus Russell): 1 µg/mL (≈ 1.87 µM); MIC [15]: 0.2 µg/mL (≈ 0.373 µM); MIC (Strep dysgalaciae SPD1): 2.5 µg/mL (≈ 4.67 µM); MIC ([11]; Haemophilus influenzae Q1, nutrient agar with 5% chocolated horse blood, read-out: MIC): 0.2 µg/mL (≈ 0.373 µM); MIC [12]: 10 µg/mL (≈ 18.7 µM); MIC (Staph aureus W2827): 1 µg/mL (≈ 1.87 µM) |
